Source: publication PMC6522912, “Evaluation of the published kinase inhibitor set to identify multiple inhibitors of bacterial ATP-dependent mur ligases” (Journal of Enzyme Inhibition and Medicinal Chemistry, 2019)
Values after ≈ are worked out from the molar mass of the structure shown. Read-outs that look alike come from different tables or passages of the source.

Tests used:
[1] = target: E. coli MurD (Escherichia coli, UniProt P14900); experiment: biochemical; conditions: for remaining activity at 100 µM: 0.25 h, Table S1, PKIS screening, read-out: RA [%] at 100 µM MurD; for IC50 / MurD RA [%]: Table 1; for IC50: read-out: MurD IC50; for LE (MurD): ligand efficiency, LE = (1.37 × pIC50)/HAC; for MurD RA [%]: residual activity at 100 µM compound
Method in brief: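 Orthophosphate released by E. coli MurD quantified by malachite green (Biomol green) absorbance at 650 nm after 15 min at 37 °C. Residual activity relative to DMSO-only controls.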

[2] = target: E. coli MurF (Escherichia coli, UniProt P11880); experiment: biochemical; conditions: for remaining activity at 100 µM: 0.25 h, Table S1, PKIS screening, read-out: RA [%] at 100 µM MurF; for IC50 / MurF RA [%]: Table 1; for LE (MurF): ligand efficiency, LE = (1.37 × pIC50)/HAC; for MurF RA [%]: residual activity at 100 µM compound
[3] = tested on: human kinases; conditions: over 200 kinase activity assays and 68 DSF assays; cited from earlier work
[4] = target: E. coli MurC (Escherichia coli, UniProt P17952); experiment: Malachite green inhibition assay, MurC; assay type: biochemical; conditions: for remaining activity at 100 µM: 0.25 h; for IC50 / MurC RA [%]: Table 1; for IC50: read-out: MurC IC50; for MurC RA [%]: residual activity at 100 µM compound
[5] = target: E. coli MurE (Escherichia coli, UniProt P22188); experiment: Malachite green inhibition assay, MurE; assay type: biochemical; conditions: for IC50 / MurE RA [%]: Table 1; for IC50: read-out: MurE IC50; for MurE RA [%]: residual activity at 100 µM compound
Procedure: Inhibition of the Mur ligases was determined using the malachite green assay, with slight modifications.
MurE: 50 mM Hepes, pH 8.0, 15 mM MgCl2, 0.005% Triton X-114, 60 µM meso-diaminopimelic acid, 100 µM uridine-5′-diphosphate-N-acetylmuramoyl-L-alanine-D-glutamate, 1000 µM ATP, and purified E. coli MurE[27].
In all cases, the final concentration of DMSO was 5% (v/v). After incubation for 15 min at 37 °C, the enzyme reaction was terminated by addition of 100 µM Biomol green reagent, and the absorbance was measured at 650 nm after 5 min. All of the experiments were run in duplicate. Residual activities were calculated with respect to control assays without the tested compounds, but with the 5% DMSO carrier.
The published kinase inhibitor set compounds were evaluated for inhibition of MurC, D and F ligases from E. coli using the Malachite green assay, which detects orthophosphate generated during enzymatic reactions. To avoid non-specific inhibition due to aggregate formation, all of the compounds were tested in the presence of detergent (0.005% Triton-X114). The data are presented as the residual activities of these Mur ligases in the presence of 100 µM of each test compound (Supporting Information Table S1). […]. The IC50 values against MurC, D, E and F were determined for the selected hit compounds – one representative compound from each structural class was chosen: compound 1[33], aza-stilbene derivative; compound 2[34], alkynyl pyrimidine; compound 3[35], pyrazolo [1,5]-b]pyridazine; compound 4[36], phenoxypyrimidine; compound 5[37], 4,6-bis-anilino-1H-pyrrolo[2,3-pyrimidine (Table 1). […]. […] Among the hits, compounds for further mechanistic studies were chosen on the basis of their ligand efficiency. Ligand efficiency quantifies the molecular properties, particularly size and lipophilicity and is used as a selection criterion for structurally different compounds as more ‘efficient’ ligands have the potential to control for the inflation of these properties[38] Thus ligand efficiencies were calculated for the four hits (Supporting Information Table S2)[39]^,[40], and compound 1 was selected as the most promising for additional studies. Additionally, regarding the data of profiled compounds in large panels of human kinase assays[41] […] To provide sufficient amounts of compound 1 for kinetic and NMR studies, it was resynthesized according to the synthetic procedures (Figure 2) described in the literature.

[6] = tested on: E. coli (ATCC 25922); experiment: Antimicrobial testing, broth microdilution; assay type: cell-based; conditions: Escherichia coli, ATCC25922; positive control; 20 h, 37 °C
Procedure: (§1) Antimicrobial testing was performed by the broth microdilution method in 96-well plates following the Clinical and Laboratory Standards Institute guidelines[29] and European Committee on Antimicrobial Susceptibility Testing recommendations. Bacterial suspensions equivalent to 0.5 McFarland turbidity standard were diluted with cation-adjusted Mueller–Hinton broth with TES buffering (ThermoFisher Scientific), for a final inoculum of 10^5 CFU/mL. The compounds dissolved in DMSO and the inoculum were mixed together and incubated for 20 h at 37 °C. […] The MICs were determined against Staphylococcus aureus (ATCC 29213) and E. coli (ATCC 25922) bacterial strains. Tetracycline was used as the positive control on every assay plate, with MICs of 0.5 and 1 µg/mL for S. aureus and E. coli, respectively.

[7] = tested on: Staphylococcus aureus (ATCC 29213); experiment: Antimicrobial testing, broth microdilution; assay type: cell-based; conditions: ATCC29213, positive control, 20 h, 37 °C
Procedure: as §1

[8] = Table S1, PKIS screening, read-out: RA [%] at 100 µM MurC
[9] = read-out: RA [%] at 100 µM MurC, Table S1, PKIS screening

Sequence of E. coli MurF (P11880 whole entry): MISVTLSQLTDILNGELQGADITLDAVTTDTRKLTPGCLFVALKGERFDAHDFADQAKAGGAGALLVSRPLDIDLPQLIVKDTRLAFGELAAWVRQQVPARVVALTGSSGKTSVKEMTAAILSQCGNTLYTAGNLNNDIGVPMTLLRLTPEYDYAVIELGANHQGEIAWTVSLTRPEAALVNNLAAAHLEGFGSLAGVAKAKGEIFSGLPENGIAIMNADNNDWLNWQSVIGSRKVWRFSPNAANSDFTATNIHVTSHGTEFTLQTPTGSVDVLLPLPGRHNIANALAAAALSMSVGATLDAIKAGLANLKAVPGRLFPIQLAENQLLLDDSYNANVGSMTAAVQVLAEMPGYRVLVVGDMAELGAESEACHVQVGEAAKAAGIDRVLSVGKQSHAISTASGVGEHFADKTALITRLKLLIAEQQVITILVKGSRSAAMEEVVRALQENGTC
Sequence of E. coli MurE (P22188 whole entry): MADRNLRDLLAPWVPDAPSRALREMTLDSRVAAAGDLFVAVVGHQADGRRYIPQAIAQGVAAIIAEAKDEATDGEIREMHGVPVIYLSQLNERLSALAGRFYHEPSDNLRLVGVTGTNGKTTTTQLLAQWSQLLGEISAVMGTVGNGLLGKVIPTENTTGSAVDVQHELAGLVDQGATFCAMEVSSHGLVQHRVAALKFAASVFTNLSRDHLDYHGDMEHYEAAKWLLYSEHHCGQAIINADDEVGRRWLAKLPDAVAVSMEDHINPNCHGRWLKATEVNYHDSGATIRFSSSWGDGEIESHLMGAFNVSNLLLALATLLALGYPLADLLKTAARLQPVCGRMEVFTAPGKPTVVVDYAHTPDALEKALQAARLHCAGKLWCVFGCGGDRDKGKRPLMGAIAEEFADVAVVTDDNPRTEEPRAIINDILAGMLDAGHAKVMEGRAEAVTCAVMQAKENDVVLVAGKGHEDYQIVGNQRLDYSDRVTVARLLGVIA
Sequence of E. coli MurD (P14900 whole entry): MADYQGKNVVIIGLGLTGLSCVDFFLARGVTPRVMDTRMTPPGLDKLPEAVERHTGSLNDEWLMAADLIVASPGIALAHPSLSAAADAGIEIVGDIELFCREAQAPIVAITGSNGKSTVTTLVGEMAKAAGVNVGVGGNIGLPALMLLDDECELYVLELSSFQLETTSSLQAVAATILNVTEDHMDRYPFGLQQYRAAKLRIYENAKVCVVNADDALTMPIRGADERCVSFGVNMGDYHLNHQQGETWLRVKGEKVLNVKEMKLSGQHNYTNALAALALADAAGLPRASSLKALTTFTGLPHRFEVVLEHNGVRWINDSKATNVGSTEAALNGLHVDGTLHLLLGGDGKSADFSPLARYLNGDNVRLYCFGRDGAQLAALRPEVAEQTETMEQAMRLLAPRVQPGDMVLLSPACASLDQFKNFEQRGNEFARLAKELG
Sequence of E. coli MurC (P17952 whole entry): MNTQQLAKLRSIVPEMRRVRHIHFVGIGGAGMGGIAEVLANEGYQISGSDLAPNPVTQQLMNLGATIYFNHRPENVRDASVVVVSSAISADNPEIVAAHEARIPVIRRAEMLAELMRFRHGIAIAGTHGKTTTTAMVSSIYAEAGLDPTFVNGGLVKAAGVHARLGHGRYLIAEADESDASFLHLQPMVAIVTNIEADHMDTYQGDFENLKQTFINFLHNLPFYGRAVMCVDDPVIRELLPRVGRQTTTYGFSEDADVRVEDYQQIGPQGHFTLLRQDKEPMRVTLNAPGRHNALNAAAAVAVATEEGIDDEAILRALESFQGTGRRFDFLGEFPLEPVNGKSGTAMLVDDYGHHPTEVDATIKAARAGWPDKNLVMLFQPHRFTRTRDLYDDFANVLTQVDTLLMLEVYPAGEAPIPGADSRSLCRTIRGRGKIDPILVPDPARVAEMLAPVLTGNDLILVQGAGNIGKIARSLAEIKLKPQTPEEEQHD

Row | Structure (SMILES) | remaining activity at 100 µM [1] | IC50 [1] | LE (MurD) [1] | MurD RA [%] [1] | remaining activity at 100 µM [2] | IC50 [2] | LE (MurF) [2] | MurF RA [%] [2] | activity at human kinases [3] | remaining activity at 100 µM [4, 8] | IC50 [4] | MurC RA [%] [4] | IC50 [5] | MurE RA [%] [5] | residual activity printed in column IC50 MurD ([1]; Table S2) | residual activity printed in column IC50 MurF ([2]; Table S2) | remaining activity at 100 µM [4, 9] | residual activity printed in column IC50 MurE ([5]; Table S2) | MIC [6] | MIC [7]
1 | Nc1ccc(C#Cc2cncnc2Nc2ccc(OCc3cccc(F)c3)c(Cl)c2)cc1 [Compound 2] | 51% | 104 µM | 0.17 | 51% | 30% | 39 µM | 0.19 | 30% | no appreciable activity | 43% | 62 µM | 43% | 157 µM | 50% |  |  |  |  |  | 
2 | COc1ccc(-c2nn3ncccc3c2-c2ccnc(Nc3cccc(C(F)(F)F)c3)n2)cc1 [Compound 3] | 80% |  |  | 83% | 35% |  |  | 100% |  |  | 74 µM | 10% |  | 84% | 83% | 100% | 10% | 84% |  | 
3 | N#Cc1ccc(Oc2nccc(-c3c(-c4ccc(F)cc4)ncn3C3CCNCC3)n2)cc1 [Compound 4] | 27% | 63 µM | 0.17 | 27% | 19% | 95 µM | 0.17 | 51% | no appreciable activity |  | 90 µM | 48% | 139 µM | 56% |  |  | 48% |  |  | 
4 | CCCN1CCCC(c2ccc(Nc3nc(Nc4cc(F)ccc4C(N)=O)c4cc[nH]c4n3)c(OC)c2)C1 (stereo not shown) [Compound 5] | 10% | 32 µM | 0.16 | 10% | 16% | 66 µM | 0.15 | 16% | appreciable activity | 29% | 62 µM | 29% | 58 µM | 26% |  |  |  |  |  | 
5 | CN(C)[C@@H]1C(O)=C(C(N)=O)C(=O)[C@@]2(O)C(O)=C3C(=O)c4c(O)cccc4[C@@](C)(O)[C@H]3C[C@@H]12 [Tetracycline] |  |  |  |  |  |  |  |  |  |  |  |  |  |  |  |  |  |  | 1 µg/mL (≈ 2.25 µM) | 0.5 µg/mL (≈ 1.13 µM)
